row,SMILES,melting point
1,Nc1cc(C#Cc2ccc3c(C(=O)Nc4cccc(C(F)(F)F)c4)cccc3c2)ncn1,217 to 220 °C
2,CON(C)C(=O)Nc1ccc(OCCc2cccc(C)n2)cc1,96 to 97 °C
3,CCOC(=O)C(=CNC1CC1)C(=O)c1cc(F)c(Cl)c(C#N)c1Cl,65 to 67 °C
4,CCOC(=O)C=Cc1ccc(OC(C)c2nc(-c3ccccc3)oc2C)c(OC)c1 (centres undefined),121 to 122 °C
5,COC1CSC2=C(SC1)C(OC(=O)N1CCN(C)CC1)N(c1ccc(Cl)cn1)C2=O (centres undefined),197 °C
6,O=C(O)C(CCc1ccccc1)Oc1ccc(-c2ccc(-c3c(Cc4ccccc4)oc4ccccc34)cc2)cc1 (centres undefined),152 to 154 °C
7,COc1cc(O)c(C(=O)C=Cc2ccc(O)c(OC)c2)c(OC)c1,177 °C
8,Cc1snnc1SCC1=C(C(=O)OC(C)(C)C)N2C(=O)[C@@H](NC(=O)Cc3cccs3)[C@H]2SC1,155 to 157 °C
9,CCN(CC)c1ccc(-c2cc(-c3ccc(C(=O)O)cc3)ccc2CCCNC2CCCCC2)cc1C(C)(C)C,253 °C
10,CCOC(=O)c1cn(C)c2nc3cc(F)c(F)cc3cc2c1=O,323 to 324 °C
11,CNC(=O)c1cc(-c2cccc3nc(Nc4cc(OC)c(OC)c(OC)c4)oc23)cs1,260 to 262 °C
12,O=C(CCC(O)c1ccccc1)N1CCCCC1 (centres undefined),42 to 44 °C
13,N#Cc1c(C(F)(F)F)oc2cc(O)ccc2c1=O,255 to 257 °C
14,CCCCCC(=O)CCC(C)=O,18 °C
15,Cn1nc(C(F)(F)F)cc1Oc1cc(C#N)cc(Oc2cc(C(F)(F)F)nn2C)n1,140 °C
16,CN1C(=O)C(c2cccc(O)c2)(c2cnn(CC(F)(F)F)c2)N=C1N (centres undefined),118 to 120 °C
17,O=C(CN1CCC(n2c(=O)[nH]c3ccccc32)CC1)Nc1ccc(C2CCCCC2)cc1,130 to 132 °C
18,CC(C)c1cc(-c2ccccc2)nc(-c2ccc(F)cc2)c1C=C(Br)Br,124 to 126 °C
19,Clc1cnc2cc(Cl)c(Cl)cc2n1,137 °C
20,Nc1ccc(S(=O)(=O)C[N+](=O)[O-])cc1,132 to 133 °C
21,CC(C)(C)NC(=O)[C@@H]1CCCC[C@H]1C[C@@H](O)[C@H](Cc1ccccc1)NC(=O)[C@H](CC(N)=O)NC(=O)OCc1ccccc1,195 to 199 °C
22,Clc1ccc(-c2nc3c(c(NC4CCCC4)n2)CCC3)cc1,167 °C
23,CS(=O)(=O)c1ccc(-c2cnn(CCC(F)=C(F)F)c(=O)c2-c2ccc(F)cc2)cc1,131 to 132 °C
24,N#CC1CCN(c2ccc3c(NC(=O)CC4CCCCC4)c(Cl)ccc3n2)CC1,235 to 237 °C
25,O=C(O)C1=Cc2c(ccc(Cl)c2-c2ccsc2)OC1C(F)(F)F (centres undefined),211 to 214 °C

row,SMILES,melting point
1,CCOC(=O)CS(=O)(=O)Cc1cccc(-c2c(CC(=O)Nc3ccc(F)cc3C(F)(F)F)c(=O)oc3cc(Cl)c(C)cc23)c1,230 to 231 °C
2,CN1CCN=C1N1CCNCC1,115 to 125 °C
3,COc1ccc(C(=O)n2c3c(c4ccccc42)CC(C(=O)O)(C(=O)O)CC3)cc1,205 to 207 °C
4,Cc1occc1C(=O)Nc1ccc(C(=O)N2Cc3cccn3Cc3ccccc32)cn1,210 to 212 °C
5,Nc1nc(N)c(CCCNc2ccc(C(=O)N[C@@H](CCC(=O)O)C(=O)O)cc2)c(=O)[nH]1,195 to 200 °C
6,CCOC(=O)C1=C(C)NC2=C(C(=O)OC2)C1c1ccccc1Cl (centres undefined),211 to 212 °C
7,O=c1cc2c(n[nH]1)-c1ccccc1CC2,236 °C
8,COc1c(C(=O)O)cc(Cl)c(N)c1C,151 °C
9,CNC(CSCC(=O)c1ccc2[nH]c3ncc(Cl)cc3c2c1)NC,176 to 177 °C
10,Nc1ccc(CCNCCCCCCNCCc2ccc(O)c(O)c2)cc1,> 250 °C
11,CC(C)n1nc(-c2sc(NC(=O)c3ccc(CN4CCCC4)cc3)nc2-c2ccccc2)ccc1=O,221 to 222 °C
12,CCOc1cccc(CNCCc2ccccc2)c1O,88 to 90 °C
13,Cc1ccc2c(c1)NC(=O)c1cscc1O2,209 to 213 °C
14,NC(=S)Nc1ccccc1C1CC1,152 to 154 °C
15,Cc1ccc(CSc2nc3cc4c(cc3[nH]2)OC(C)O4)nc1,147 to 148 °C
16,O=[N+]([O-])c1cccnc1Nc1ccncc1,165 to 167 °C
17,CS(=O)(=O)Nc1cc(C(=O)C=O)ccc1OCc1ccccc1,125 to 128 °C
18,"CN1C(=O)CCC2(C)c3ccc(Sc4ccccc4F)cc3CCC12 (single isomer, unassigned; (+))",100 to 103 °C
19,COc1ccc(C2CC(=O)N(C(=O)c3cncc(Br)c3)N2C)cc1OC1CCCC1 (centres undefined),139 to 141 °C
20,CS(=O)(=O)Nc1ccc(C=C2CCOC2=O)cc1Oc1ccc(F)cc1F,179 to 180 °C
21,COC(=O)c1ccc(C#CC(O)c2cccc3c2OCCC3(C)C)cc1O (centres undefined),122 to 123 °C
22,CC(C)(C)c1ccc(NC(=O)c2ccc(C3=NCCS3)cc2)cc1,176 to 177 °C
23,COc1ccc(C(=O)c2cc(F)ccc2F)c(O)c1,109 °C
24,O=c1nc(-c2c(F)cccc2F)oc(=O)n1-c1cc(Cl)c(Oc2ncc(OC(F)F)cc2Cl)c(Cl)c1,154 to 156 °C

# Reference: a melting point compilation (Tetko et al.; mined from patent text by program, amines drawn as free bases though some values may be those of a salt)
